Where “and” joins values, the source holds several entries; their conditions need not be identical. Identical values can stand only once.
Details: Liquid, Falling or rolling sphere viscometry

[2H]O[2H] [water-d2]
Details	viscosity
255.65 K, 212200 kPa	3.963 mPa·s
255.65 K, 220100 kPa	3.973 mPa·s
255.65 K, 239200 kPa	4.012 mPa·s
255.65 K, 249500 kPa	4.036 mPa·s
258.15 K, 196900 kPa	3.566 mPa·s
258.15 K, 215300 kPa	3.588 mPa·s
258.15 K, 242900 kPa	3.629 mPa·s
258.15 K, 271000 kPa	3.697 mPa·s
258.15 K, 298500 kPa	3.777 mPa·s
258.15 K, 315600 kPa	3.835 mPa·s
263.15 K, 153200 kPa	2.939 mPa·s
263.15 K, 160800 kPa	2.937 mPa·s
263.15 K, 185300 kPa	2.944 mPa·s
263.15 K, 200800 kPa	2.953 mPa·s
263.15 K, 249500 kPa	3.02 mPa·s
263.15 K, 299600 kPa	3.125 mPa·s
263.15 K, 347100 kPa	3.26 mPa·s
263.15 K, 383400 kPa	3.381 mPa·s
268.15 K, 109700 kPa	2.494 mPa·s
268.15 K, 125300 kPa	2.475 mPa·s
268.15 K, 150900 kPa	2.468 mPa·s
268.15 K, 174700 kPa	2.464 mPa·s
268.15 K, 201200 kPa	2.481 mPa·s
268.15 K, 251400 kPa	2.535 mPa·s
268.15 K, 289200 kPa	2.601 mPa·s
268.15 K, 325500 kPa	2.675 mPa·s
268.15 K, 390600 kPa	2.85 mPa·s
273.15 K, 52000 kPa	2.196 mPa·s
273.15 K, 69600 kPa	2.159 mPa·s
273.15 K, 99700 kPa	2.116 mPa·s
273.15 K, 130400 kPa	2.098 mPa·s
273.15 K, 150600 kPa	2.096 mPa·s
273.15 K, 177300 kPa	2.103 mPa·s
273.15 K, 204300 kPa	2.119 mPa·s
273.15 K, 223000 kPa	2.135 mPa·s
273.15 K, 252900 kPa	2.165 mPa·s
273.15 K, 279500 kPa	2.203 mPa·s
273.15 K, 302900 kPa	2.234 mPa·s
273.15 K, 350500 kPa	2.318 mPa·s
273.15 K, 357500 kPa	2.336 mPa·s
273.15 K, 395200 kPa	2.435 mPa·s
278.15 K, 100 kPa	1.987 mPa·s
278.15 K, 3100 kPa	1.977 mPa·s
278.15 K, 5600 kPa	1.968 mPa·s
278.15 K, 8100 kPa	1.961 mPa·s
278.15 K, 10800 kPa	1.952 mPa·s
278.15 K, 25900 kPa	1.911 mPa·s
278.15 K, 50800 kPa	1.862 mPa·s
278.15 K, 75600 kPa	1.829 mPa·s
278.15 K, 100700 kPa	1.811 mPa·s
278.15 K, 125600 kPa	1.803 mPa·s
278.15 K, 150500 kPa	1.802 mPa·s
278.15 K, 174500 kPa	1.809 mPa·s
278.15 K, 199100 kPa	1.822 mPa·s
278.15 K, 224100 kPa	1.841 mPa·s
278.15 K, 249600 kPa	1.865 mPa·s
278.15 K, 299700 kPa	1.922 mPa·s
278.15 K, 349100 kPa	1.993 mPa·s
283.15 K, 100 kPa	1.677 mPa·s
283.15 K, 200 kPa	1.676 mPa·s and 1.677 mPa·s
283.15 K, 3000 kPa	1.67 mPa·s
283.15 K, 5600 kPa	1.665 mPa·s
283.15 K, 8100 kPa	1.66 mPa·s
283.15 K, 10800 kPa	1.655 mPa·s
283.15 K, 25800 kPa	1.629 mPa·s
283.15 K, 50800 kPa	1.597 mPa·s and 1.598 mPa·s
283.15 K, 100800 kPa	1.569 mPa·s and 1.567 mPa·s
283.15 K, 125500 kPa	1.566 mPa·s
283.15 K, 150600 kPa	1.57 mPa·s
283.15 K, 150800 kPa	1.569 mPa·s
283.15 K, 175500 kPa	1.579 mPa·s
283.15 K, 199400 kPa	1.592 mPa·s
283.15 K, 199700 kPa	1.592 mPa·s
283.15 K, 224300 kPa	1.608 mPa·s
283.15 K, 249600 kPa	1.629 mPa·s
283.15 K, 249700 kPa	1.63 mPa·s
283.15 K, 299200 kPa	1.678 mPa·s
283.15 K, 299600 kPa	1.678 mPa·s
283.15 K, 348600 kPa	1.737 mPa·s
283.15 K, 348700 kPa	1.737 mPa·s
298.15 K, 100 kPa	1.097 mPa·s [middle of 6 runs]
298.15 K, 200 kPa	1.095 mPa·s
298.15 K, 5600 kPa	1.092 mPa·s
298.15 K, 8000 kPa	1.09 mPa·s
298.15 K, 10300 kPa	1.091 mPa·s
298.15 K, 10700 kPa	1.09 mPa·s
298.15 K, 25700 kPa	1.084 mPa·s
298.15 K, 30700 kPa	1.084 mPa·s
298.15 K, 50700 kPa	1.079 mPa·s and 1.081 mPa·s
298.15 K, 60700 kPa	1.079 mPa·s
298.15 K, 75600 kPa	1.08 mPa·s
298.15 K, 90600 kPa	1.081 mPa·s
298.15 K, 90700 kPa	1.081 mPa·s
298.15 K, 100600 kPa	1.081 mPa·s
298.15 K, 120700 kPa	1.086 mPa·s
298.15 K, 125600 kPa	1.087 mPa·s
298.15 K, 130600 kPa	1.089 mPa·s
298.15 K, 150600 kPa	1.094 mPa·s and 1.095 mPa·s
298.15 K, 170500 kPa	1.104 mPa·s
298.15 K, 175600 kPa	1.105 mPa·s
298.15 K, 180600 kPa	1.108 mPa·s
298.15 K, 200600 kPa	1.117 mPa·s
298.15 K, 210200 kPa	1.122 mPa·s
298.15 K, 210600 kPa	1.123 mPa·s
298.15 K, 225500 kPa	1.131 mPa·s
298.15 K, 240600 kPa	1.141 mPa·s
298.15 K, 249700 kPa	1.146 mPa·s
298.15 K, 270500 kPa	1.16 mPa·s
298.15 K, 299600 kPa	1.181 mPa·s
298.15 K, 300300 kPa	1.182 mPa·s
298.15 K, 330100 kPa	1.205 mPa·s
298.15 K, 331900 kPa	1.205 mPa·s
298.15 K, 349000 kPa	1.221 mPa·s
298.15 K, 359800 kPa	1.23 mPa·s
298.15 K, 389400 kPa	1.257 mPa·s

— the NIST ThermoML archive (doi:10.1021/je049918m)
